Data: patent publication US9617283B2, “Bicyclic heterocycle compounds and their uses in therapy” (ASTEX THERAPEUTICS LIMITED, priority 2012, dated 2017)
Where a name gives a salt, the structure may show the parent alone. Read-outs that look alike come from different tables or passages of the source.

Columns and labels:
[1] = target: T1, BIR3 domain of human XIAP (residues 252-350) (Homo sapiens, UniProt P98170); experiment: XIAP in vitro competitive displacement binding assay (fluorescence polarization); conditions: percent inhibition (PI) at 0.04 μM; for Xiap IC50 or PI μM: 60 min, dihydrochloride, 0.04 µM; for inhibition at 0.04 µM: 1 h, read-out: Xiap IC50 or PI μM
T1 construct: BIR3 domain of human XIAP (residues 252-350); His-tag (cleaved yes); made in house; host or cells: Escherichia coli

[2] = target: T2, BIR3 domain of human cIAP-1 (residues 267-363) (Homo sapiens, UniProt Q13490); experiment: cIAP-1 in vitro competitive displacement binding assay (fluorescence polarization)
T2 construct: human cIAP-1 (residues 267-363) fused to a GST-tag; GST-tag (cleaved yes); made in house; host or cells: Escherichia coli

[3] = tested on: EVSA-T (human breast carcinoma); experiment: Anti-proliferative activity, Alamar Blue assay, EVSA-T; assay type: cell-based
[4] = EVSA-T cell line, 72 hours, Alamar Blue; dihydrochloride; read-out: EVSA-T prolif
[5] = Homo sapiens, EVSA-T; read-out: EC50 in EVSA-T cell line assays
[6] = Homo sapiens, EVSA-T, 72 h, EVSA-T cell line, 72 hours, Alamar Blue; read-out: EVSA-T prolif

T1 sequence (P98170 252-350): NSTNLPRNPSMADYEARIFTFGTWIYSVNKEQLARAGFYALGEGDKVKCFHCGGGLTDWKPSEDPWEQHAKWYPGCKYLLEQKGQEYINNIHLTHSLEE
T2 sequence (Q13490 267-363): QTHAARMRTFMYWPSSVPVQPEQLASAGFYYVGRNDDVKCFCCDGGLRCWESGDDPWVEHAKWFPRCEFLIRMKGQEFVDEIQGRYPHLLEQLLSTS

Structure (SMILES)	Xiap IC50 or PI μM [1]	cIAP1 IC50 or PI μM ([2]; percent inhibition (PI) at […], 180 min, dihydrochloride, […])	EC50 [3, 4]	EC50 [3, 5]	inhibition at 0.04 µM ([2]; 3 h, percent inhibition (PI) at 0.04 μM, read-out: cIAP1 IC50 or PI μM)	inhibition at 0.04 µM [1]	EC50 [3, 6]	EC50 ([3]; Homo sapiens, EVSA-T, read-out: EC50 in EVSA-T cell line assays)
CCC1CN(C[C@H]2CN[C@H](C)CN2CC(=O)N2CC(C)(C)c3ncc([C@@H](O)c4ccc(F)cc4)cc32)C(=O)CO1 (single isomer, unassigned) [Example 111, (R or S)-6-ethyl-4-{[(2R,5R)-1-(2-{6-[(S)-(4-Fluorophenyl)(hydroxy)methyl]-3,3-dimethyl-1H,2H,3H-pyrrolo[3,2-b]pyridin-1-yl}-2-oxoethyl)-5-methylpiperazin-2-yl]methyl}morpholin-3-one dihydrochloride]	68%@0.04	62%@0.012	77 nM	< 1000 nM	–	–	–	–
CCCC(O)c1cnc2c(c1)N(C(=O)CN1C[C@@H](C)NC[C@@H]1CN1Cc3ccccc3C1=O)CC2(C)C (single isomer, unassigned) [Example 91, dihydrochloride]	40%@0.04	–	330 nM	–	53%	–	–	–
CC1=C(C)C(=O)N(C[C@H]2CN[C@H](C)CN2CC(=O)N2CC(C)(C)c3cnc(Cc4ccc(F)cc4)cc32)C1 [Example 36, 1-{[(2R,5R)-1-(2-{6-[(4-Fluorophenyl)methyl]-3,3-dimethyl-1H,2H,3H-pyrrolo[3,2-c]pyridin-1-yl}-2-oxoethyl)-5-methylpiperazin-2-yl]methyl}-3,4-dimethyl-2,5-dihydro-1H-pyrrol-2-one dihydrochloride]	–	–	–	< 1000 nM	–	74%	1.7 nM	–
C[C@@H]1CN(CC(=O)N2CC(C)(C)c3ncc(Cc4ccc(F)cc4F)cc32)[C@@H](CN2CC(C)(C)CC2=O)CN1 [Example 30, 1-{[(2R,5R)-1-(2-{6-[(2,4-Difluorophenyl)methyl]-3,3-dimethyl-1H,2H,3H-pyrrolo[3,2-b]pyridin-1-yl}-2-oxoethyl)-5-methylpiperazin-2-yl]methyl}-4,4-dimethylpyrrolidin-2-one dihydrochloride]	–	–	–	–	–	70%	1.1 nM	< 1000 nM
